# “And” between values parts separate entries of the source, which are not always exact repeats. Equal values may be shown once. The source made the active and inactive calls.
# How the values were obtained:
# SUMO E1/E2 = SUMO E1/E2 (Homo sapiens, UniProt P63279+Q9UBE0+Q9UBT2); assay: SAR analysis of SUMOylation using HTRF in an in-Vitro dose response assay. [Related pubchem assays (depositor defined):AID2006, AID2011, AID2018, AID2069, AID2658]; format: functional
# HEK293 [1] = assay: NOD1 signaling inhibitors, primary screen, cell-based, luminescence, uHTS (AID 1578); format: functional; details: Homo sapiens
# HEK293 [2] = assay: cells; details: Homo sapiens
# HEK293 [3] = assay: cells; format: functional, cell-based; details: Homo sapiens
# HEK293 [4] = assay: cells; format: functional, cell-based; details: Homo sapiens; remark: listed apart in the source
# HEK293 [5] = assay: NOD2 signaling inhibitors in MDP-stimulated cells, cell-based, uHTS, luminescence (AID 2001); format: functional; details: Homo sapiens
# [6] = molecular target: T1, Sentrin-specific protease 8 (Homo sapiens, UniProt Q96LD8); format: functional
# T1 sequence (Q96LD8 whole entry): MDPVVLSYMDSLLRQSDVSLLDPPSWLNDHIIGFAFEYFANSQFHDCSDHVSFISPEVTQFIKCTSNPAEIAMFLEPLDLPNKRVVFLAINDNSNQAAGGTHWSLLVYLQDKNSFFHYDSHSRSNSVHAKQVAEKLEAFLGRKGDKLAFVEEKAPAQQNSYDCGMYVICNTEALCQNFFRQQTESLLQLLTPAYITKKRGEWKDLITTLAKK
# [7] = molecular target: Nucleotide-binding oligomerization domain-containing protein 1 (Homo sapiens, UniProt Q9Y239); assay: NOD1 signaling inhibitors, SAR follow-up, revised (AID 2333); format: functional
# Sequence of Nucleotide-binding oligomerization domain-containing protein 1 (Q9Y239 whole entry, the tested form may be a part): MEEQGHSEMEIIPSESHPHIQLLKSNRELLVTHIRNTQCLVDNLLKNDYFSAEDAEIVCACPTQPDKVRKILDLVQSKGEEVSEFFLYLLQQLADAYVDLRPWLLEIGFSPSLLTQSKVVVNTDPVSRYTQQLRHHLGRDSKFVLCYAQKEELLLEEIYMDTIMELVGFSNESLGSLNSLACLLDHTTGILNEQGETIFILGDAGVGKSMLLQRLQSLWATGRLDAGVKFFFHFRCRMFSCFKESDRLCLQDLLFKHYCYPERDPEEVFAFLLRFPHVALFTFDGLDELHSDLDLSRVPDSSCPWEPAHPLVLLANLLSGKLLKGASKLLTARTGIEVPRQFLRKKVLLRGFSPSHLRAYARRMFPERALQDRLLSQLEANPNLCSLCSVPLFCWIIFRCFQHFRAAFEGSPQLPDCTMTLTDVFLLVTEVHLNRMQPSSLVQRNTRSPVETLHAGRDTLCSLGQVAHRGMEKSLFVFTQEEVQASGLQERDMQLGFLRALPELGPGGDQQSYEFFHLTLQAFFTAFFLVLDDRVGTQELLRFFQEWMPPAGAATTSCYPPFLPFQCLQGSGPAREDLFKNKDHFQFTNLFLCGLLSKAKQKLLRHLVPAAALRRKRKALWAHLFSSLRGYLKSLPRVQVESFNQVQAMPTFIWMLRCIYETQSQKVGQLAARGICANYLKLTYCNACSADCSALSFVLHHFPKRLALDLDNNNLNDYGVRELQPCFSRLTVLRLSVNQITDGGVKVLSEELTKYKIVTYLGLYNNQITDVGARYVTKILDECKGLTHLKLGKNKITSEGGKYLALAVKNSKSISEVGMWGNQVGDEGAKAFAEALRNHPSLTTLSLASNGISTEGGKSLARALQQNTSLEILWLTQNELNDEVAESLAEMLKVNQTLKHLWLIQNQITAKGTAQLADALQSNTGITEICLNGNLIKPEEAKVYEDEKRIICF
# Tumor necrosis factor = Tumor necrosis factor (Homo sapiens, UniProt P01375); assay: TNFa-triggered NF-kB activation inhibitors, SAR follow-up, cell-based, revised (AID 2337); format: functional
# Sequence of Tumor necrosis factor (P01375 whole entry): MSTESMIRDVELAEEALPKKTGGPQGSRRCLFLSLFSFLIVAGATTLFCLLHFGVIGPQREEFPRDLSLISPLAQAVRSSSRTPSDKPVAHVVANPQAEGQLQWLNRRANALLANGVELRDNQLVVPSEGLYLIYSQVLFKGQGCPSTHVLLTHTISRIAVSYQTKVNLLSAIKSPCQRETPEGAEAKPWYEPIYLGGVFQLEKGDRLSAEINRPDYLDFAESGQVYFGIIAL
# [8] = molecular target: T1, Sentrin-specific protease 8; format: functional; remark: listed apart in the source
# [9] = molecular target: T2, Carboxy-terminal domain RNA polymerase II polypeptide A small phosphatase 1 (Homo sapiens, UniProt Q9GZU7); assay: inhibitors of CTDSP1, concentration-response testing, biochemical assay, absorbance-based, actives from ultra-high-throughput screening (AID 540297); format: functional
# T2 sequence (Q9GZU7 whole entry): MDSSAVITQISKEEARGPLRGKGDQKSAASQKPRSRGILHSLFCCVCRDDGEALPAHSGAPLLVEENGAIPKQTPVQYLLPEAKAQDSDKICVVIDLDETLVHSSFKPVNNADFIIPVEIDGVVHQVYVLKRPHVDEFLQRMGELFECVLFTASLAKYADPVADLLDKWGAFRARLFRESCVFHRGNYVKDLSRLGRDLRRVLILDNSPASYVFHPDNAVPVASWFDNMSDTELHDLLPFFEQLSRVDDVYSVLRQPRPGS
# [10] = molecular target: T3, Dual specificity protein phosphatase 3 (Homo sapiens, UniProt P51452); assay: VHR1 phosphatase inhibitors, primary screen, biochemical, absorbance, uHTS (AID 1654)
# T3 sequence (P51452 whole entry): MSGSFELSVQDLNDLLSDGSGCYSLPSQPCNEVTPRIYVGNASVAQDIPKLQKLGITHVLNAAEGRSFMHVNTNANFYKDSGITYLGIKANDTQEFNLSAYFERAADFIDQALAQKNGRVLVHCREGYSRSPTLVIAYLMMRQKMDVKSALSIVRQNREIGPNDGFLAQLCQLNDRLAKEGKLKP
# [11] = molecular target: T4, Dual specificity protein phosphatase 6 (Rattus norvegicus, UniProt Q64346); assay: MKP-3 phosphatase inhibitors, primary screen, biochemical, rat enzyme, in vitro (AID 425)
# T4 sequence (Q64346 whole entry): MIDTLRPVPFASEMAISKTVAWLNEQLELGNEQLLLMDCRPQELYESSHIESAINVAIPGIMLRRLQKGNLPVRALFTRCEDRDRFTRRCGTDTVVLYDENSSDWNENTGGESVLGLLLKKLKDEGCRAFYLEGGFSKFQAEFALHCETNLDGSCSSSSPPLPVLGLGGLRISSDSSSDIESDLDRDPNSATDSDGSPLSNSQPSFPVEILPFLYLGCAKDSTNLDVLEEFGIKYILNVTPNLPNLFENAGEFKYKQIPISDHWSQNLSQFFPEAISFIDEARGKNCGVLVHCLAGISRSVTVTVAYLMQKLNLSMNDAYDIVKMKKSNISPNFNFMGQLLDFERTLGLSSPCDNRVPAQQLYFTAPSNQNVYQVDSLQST
# [12] = molecular target: T3, Dual specificity protein phosphatase 3; assay: VHR1 phosphatase inhibitors, biochemical (AID 1878)
# [13] = inhibitors of intracellular T. cruzi replication, confirmation, NIH3T3 host cells, beta-gal luminescence (AID 2044); format: functional, cell-based;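 also: intracellular parasites grown in NIH/3T3 mouse fibroblasts as host cells; luminescent beta-galactosidase reporter signal from transgenic T. cruzi replicating inside host cells; inhibitors lower the luminescence signal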
# [14] = Luminescence Cell-Based Secondary HTS screen to identify cytotoxic compounds of NIH3T3 cells. [Related pubchem assays: 1885, 1968 ]; format: functional
# [15] = Luminescence Cell-Based/Microorganism Confirmation at Dose of Inhibitors of Trypanosoma cruzi Infection. [Related pubchem assays: 1885, 1968 ]; format: functional
# [16] = cytotoxicity toward NIH3T3 fibroblasts, dose response, counter-screen, cell-based, ATP luminescence, mouse fibroblasts (AID 2010); format: functional;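 also: cells exposed to compound for about 90 hours before reading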
# [17] = inhibitors of Trypanosoma cruzi host-cell infection, confirmation, beta-gal luminescence, NIH3T3 host cells (AID 2630); format: functional, cell-based; details: Mus musculus
# [18] = molecular target: T5, Alkaline phosphatase, tissue-nonspecific isozyme (Homo sapiens, UniProt P05186); assay: TNAP enzyme inhibition by screening hits, dose response, selectivity assay for mouse IAP inhibitor project, biochemical, human TNAP, uHTS hits (AID 488906); format: functional
# T5 sequence (P05186 whole entry): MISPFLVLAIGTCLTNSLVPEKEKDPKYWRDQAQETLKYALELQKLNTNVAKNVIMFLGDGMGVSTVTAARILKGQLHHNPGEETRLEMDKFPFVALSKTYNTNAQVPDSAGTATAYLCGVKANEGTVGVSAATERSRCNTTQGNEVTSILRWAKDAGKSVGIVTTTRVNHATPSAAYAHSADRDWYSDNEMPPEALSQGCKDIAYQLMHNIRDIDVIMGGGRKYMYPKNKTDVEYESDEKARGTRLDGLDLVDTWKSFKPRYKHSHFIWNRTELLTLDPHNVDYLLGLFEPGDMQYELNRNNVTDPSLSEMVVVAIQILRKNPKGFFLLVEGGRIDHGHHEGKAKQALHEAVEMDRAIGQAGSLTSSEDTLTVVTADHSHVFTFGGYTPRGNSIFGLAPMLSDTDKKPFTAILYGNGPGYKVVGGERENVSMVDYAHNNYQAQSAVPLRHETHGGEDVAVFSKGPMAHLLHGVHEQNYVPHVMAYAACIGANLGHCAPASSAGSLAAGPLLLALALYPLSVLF
# [19] = molecular target: Intestinal-type alkaline phosphatase (Mus musculus, UniProt P24822); assay: PubChem AID 488785; format: functional
# Sequence of Intestinal-type alkaline phosphatase (Mus musculus, UniProt P24822) (P24822 whole entry): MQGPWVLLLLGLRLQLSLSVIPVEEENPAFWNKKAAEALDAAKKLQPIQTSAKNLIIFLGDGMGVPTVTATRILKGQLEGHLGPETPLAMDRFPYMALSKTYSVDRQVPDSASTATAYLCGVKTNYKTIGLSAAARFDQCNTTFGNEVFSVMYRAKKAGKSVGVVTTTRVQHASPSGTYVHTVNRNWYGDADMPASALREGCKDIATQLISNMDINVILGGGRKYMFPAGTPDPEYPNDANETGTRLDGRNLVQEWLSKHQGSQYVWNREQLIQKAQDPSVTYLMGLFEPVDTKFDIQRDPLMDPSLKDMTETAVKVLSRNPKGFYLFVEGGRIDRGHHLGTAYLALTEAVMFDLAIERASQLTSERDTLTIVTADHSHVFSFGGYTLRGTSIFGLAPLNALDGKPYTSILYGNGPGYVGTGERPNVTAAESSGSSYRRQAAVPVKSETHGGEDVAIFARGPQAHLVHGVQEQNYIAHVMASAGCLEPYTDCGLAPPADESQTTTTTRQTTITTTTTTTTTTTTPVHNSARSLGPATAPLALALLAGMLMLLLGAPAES
# [20] = molecular target: Intestinal-type alkaline phosphatase (Homo sapiens, UniProt P09923); assay: inhibition of human intestinal alkaline phosphatase – biochemical, dose response (AID 488876); format: functional
# Sequence of Intestinal-type alkaline phosphatase (Homo sapiens, UniProt P09923) (P09923 whole entry): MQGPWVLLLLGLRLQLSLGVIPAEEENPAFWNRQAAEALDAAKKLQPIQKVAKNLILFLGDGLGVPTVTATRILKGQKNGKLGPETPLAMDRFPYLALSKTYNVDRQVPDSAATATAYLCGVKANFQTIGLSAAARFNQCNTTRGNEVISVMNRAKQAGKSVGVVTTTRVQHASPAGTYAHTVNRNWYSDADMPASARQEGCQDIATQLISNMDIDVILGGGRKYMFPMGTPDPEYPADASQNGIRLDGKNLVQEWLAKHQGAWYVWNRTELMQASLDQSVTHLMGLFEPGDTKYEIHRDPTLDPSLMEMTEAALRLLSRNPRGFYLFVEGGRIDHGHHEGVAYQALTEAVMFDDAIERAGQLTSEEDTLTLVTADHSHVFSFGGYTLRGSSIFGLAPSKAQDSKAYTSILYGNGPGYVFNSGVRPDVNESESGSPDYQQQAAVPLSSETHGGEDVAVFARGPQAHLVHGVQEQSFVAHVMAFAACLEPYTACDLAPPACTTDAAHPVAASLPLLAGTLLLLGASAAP
# Cytochrome P450 2C9 = Cytochrome P450 2C9 (Homo sapiens, UniProt P11712)
# Sequence of Cytochrome P450 2C9 (P11712 whole entry): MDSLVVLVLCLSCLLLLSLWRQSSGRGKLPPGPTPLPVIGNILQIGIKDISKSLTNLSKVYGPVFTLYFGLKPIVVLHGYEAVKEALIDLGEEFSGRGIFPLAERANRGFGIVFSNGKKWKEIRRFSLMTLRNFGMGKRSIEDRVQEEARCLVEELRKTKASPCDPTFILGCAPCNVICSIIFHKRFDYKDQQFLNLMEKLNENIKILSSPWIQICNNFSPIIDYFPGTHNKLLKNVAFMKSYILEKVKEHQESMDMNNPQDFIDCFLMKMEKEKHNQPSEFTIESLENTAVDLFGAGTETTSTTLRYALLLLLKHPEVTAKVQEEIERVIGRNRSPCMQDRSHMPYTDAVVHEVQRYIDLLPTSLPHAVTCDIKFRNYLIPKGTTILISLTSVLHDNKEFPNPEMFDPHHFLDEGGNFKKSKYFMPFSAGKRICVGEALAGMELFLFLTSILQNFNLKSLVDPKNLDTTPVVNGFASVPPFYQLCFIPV
# Cytochrome P450 1A2 = molecular target: T6, Cytochrome P450 1A2 (Homo sapiens, UniProt P05177);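 also: PubChem cytochrome P450 panel assay, CYP1A2 panel member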
# T6 sequence (P05177 whole entry): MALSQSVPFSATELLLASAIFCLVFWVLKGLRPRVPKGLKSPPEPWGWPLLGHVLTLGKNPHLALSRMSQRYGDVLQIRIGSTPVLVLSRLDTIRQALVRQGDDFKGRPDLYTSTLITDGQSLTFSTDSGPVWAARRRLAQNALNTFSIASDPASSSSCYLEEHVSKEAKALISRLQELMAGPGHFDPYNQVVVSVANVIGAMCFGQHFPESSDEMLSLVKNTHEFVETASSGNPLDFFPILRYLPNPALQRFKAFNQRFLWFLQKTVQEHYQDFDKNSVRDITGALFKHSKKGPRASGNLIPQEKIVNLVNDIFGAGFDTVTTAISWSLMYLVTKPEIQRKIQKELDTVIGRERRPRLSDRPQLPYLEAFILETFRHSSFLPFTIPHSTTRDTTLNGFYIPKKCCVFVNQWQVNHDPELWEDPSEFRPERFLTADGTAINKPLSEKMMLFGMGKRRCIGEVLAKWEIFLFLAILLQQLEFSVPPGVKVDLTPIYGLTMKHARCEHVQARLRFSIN
# Sequence of SUMO E1/E2 (Q9UBE0 whole entry): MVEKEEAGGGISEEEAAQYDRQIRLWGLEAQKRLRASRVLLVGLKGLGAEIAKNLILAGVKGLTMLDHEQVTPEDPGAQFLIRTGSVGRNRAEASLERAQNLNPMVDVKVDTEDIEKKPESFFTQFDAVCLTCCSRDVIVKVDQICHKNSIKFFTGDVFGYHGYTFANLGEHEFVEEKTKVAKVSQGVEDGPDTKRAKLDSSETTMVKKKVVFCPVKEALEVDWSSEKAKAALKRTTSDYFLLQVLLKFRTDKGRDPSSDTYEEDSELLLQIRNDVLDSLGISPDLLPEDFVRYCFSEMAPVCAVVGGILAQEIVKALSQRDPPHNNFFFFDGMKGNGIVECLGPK
# Sequence of SUMO E1/E2 (Q9UBT2 whole entry): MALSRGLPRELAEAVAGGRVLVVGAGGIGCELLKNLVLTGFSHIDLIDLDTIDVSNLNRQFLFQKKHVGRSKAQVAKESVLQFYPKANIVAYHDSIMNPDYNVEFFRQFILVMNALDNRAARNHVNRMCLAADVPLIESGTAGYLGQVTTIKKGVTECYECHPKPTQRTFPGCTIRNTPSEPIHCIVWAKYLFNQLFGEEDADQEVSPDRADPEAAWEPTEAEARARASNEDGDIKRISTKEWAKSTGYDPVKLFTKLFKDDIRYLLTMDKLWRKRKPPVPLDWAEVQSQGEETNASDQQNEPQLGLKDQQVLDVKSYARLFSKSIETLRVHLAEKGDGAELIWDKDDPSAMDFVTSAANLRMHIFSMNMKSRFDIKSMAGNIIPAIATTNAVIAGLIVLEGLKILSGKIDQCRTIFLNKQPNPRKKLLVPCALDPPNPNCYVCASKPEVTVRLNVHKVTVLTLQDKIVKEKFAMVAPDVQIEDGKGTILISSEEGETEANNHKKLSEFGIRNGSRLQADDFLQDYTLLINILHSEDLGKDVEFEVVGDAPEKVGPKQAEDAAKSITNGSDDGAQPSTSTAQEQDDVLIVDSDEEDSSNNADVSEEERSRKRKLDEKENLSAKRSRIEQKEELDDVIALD
# Sequence of SUMO E1/E2 (P63279 whole entry): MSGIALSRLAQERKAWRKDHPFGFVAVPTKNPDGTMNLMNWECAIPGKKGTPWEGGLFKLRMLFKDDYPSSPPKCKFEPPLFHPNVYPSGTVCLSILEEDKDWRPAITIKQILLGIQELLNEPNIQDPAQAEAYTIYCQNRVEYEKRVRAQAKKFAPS
structure (smiles),measurement,setting,value
C/C(=N\OCc1nc2ccccc2c(=O)n1/N=C/c1ccccc1O)c1ccccc1,IC50,SUMO E1/E2,29.2 µM (active)
O=C(Nc1ccc(Cl)cc1)c1ccc(CN2CCc3ccccc3C2)cc1,EC50,HEK293 [1],2.29 µM (active)
same,IC50,HEK293 [2],> 20 µM (inactive)
same,IC50,HEK293 [3],2.11 µM (active)
same,IC50,HEK293 [4],> 20 µM (inactive)
same,IC50,HEK293 [5],5.45 µM (inactive)
same,IC50,[6],22.1 µM (active)
same,IC50,[7],1.19 µM (active) and 833 nM (active)
same,IC50,Tumor necrosis factor,4.66 µM (active) and 491 nM (active)
same,IC50,[8],> 100 µM (inactive)
CN1C(=O)/C(=C2\SC(=S)N(CCCCCC(=O)O)C2=O)c2ccccc21,IC50,[9],0.836 µM (active)
same,IC50,[10],5.97 µM (active)
same,IC50,[11],> 158 µM (not active)
same,IC50,[12],2.4 µM (active)
CCOc1ccc2oc(=O)cc(CN3CCN(Cc4ccccc4)CC3)c2c1,EC50,[13],0.216 µM (active)
same,EC50,[14],> 195 µM (inconclusive)
same,EC50,[15],0.903 µM (inconclusive)
same,EC50,[16],> 30 µM (not active)
same,EC50,[17],0.903 µM (active)
CCn1nc(C)c(CN2CCC(C(=O)Nc3cccc(-c4cccc(Cl)c4)c3)CC2)c1C,IC50,[18],41 µM (active)
same,IC50,[19],1.87 µM (active)
same,IC50,[20],4.61 µM (active)
COc1cc(OC)c(C(=O)CCCN2CCCC2)c(OC)c1 [BUFLOMEDIL],AC50,Cytochrome P450 2C9,inactive
same,AC50,Cytochrome P450 1A2,inactive

# From ChEMBL document CHEMBL1201862, “PubChem BioAssay data set” (2004)
